From PMC3293351, “Pharmacokinetics and Excretion Studies on CDRI-85/92, an Antiulcer Proton Pump Inhibitor” (Scientia Pharmaceutica, 2011)
Where “and” joins values, the source holds several entries; their conditions need not be identical. Identical values can stand only once. Like-named read-outs stand apart in the source and are kept apart here.

What was measured:
[1] = Urinary, fecal and biliary excretion after 20 mg/kg oral and intravenous dose; assay type: in vivo, Sprague Dawley rats; conditions: for k el: Sprague Dawley, rat; for Excreted in urine, % of the dose: intravenously treated rats, bile duct cannulated as well as noncannulated
Description: Urinary, fecal and biliary excretion of CDRI-85/92 was studied in rats (n=3 per group) after a single 20 mg/kg oral and intravenous dose. Following treatment with CDRI-85/92, urine and feces samples were collected during 24 h with 12 h intervals. Urine was measured and kept in parafilm sealed tubes at −60°C till analyses. Feces samples were dried at 37°C, weighed, ground to fine powder using mortar-pestle and stored in desiccator until analyses. Untreated rats were housed in metabolic cages with food and water ad libitum and their feces and urine collected to serve as blank samples for method development and validation.
For biliary excretion study, bile duct of the rats was surgically cannulated under light ether anesthesia. Rats were dosed with the solution formulation of CDRI-85/92 at 20 mg/kg orally or intravenously and placed in Bollman cages. Bile samples were collected in glass tubes at 0–12 and 12–24 h post dose. The volume of the samples were recorded and stored at −60°C until analyses.
The HPLC method described above was validated for estimation of CDRI-85/92 in urine and bile by assaying the spiked control samples in these biomatrics at three concentration levels (20, 50 and 100 ng/ml of the drug). To have a robust method, inter- and intra-day validation was also conducted (Table 2).
For the preparation of the spiked control feces samples, weighed (25 mg) quantities of drug-free powdered feces were transferred to different glass tubes, fortified with appropriated volume of working dilutions of CDRI-85/92 prepared in methanol, mixed by gentle tapping and allowed to stand at room temperature for drying. The blank, spiked or test samples were moistened with 0.2 ml of KH2PO4 buffer (20 mM, pH 3.0) followed by addition of 1.0 ml of acetonitrile for protein precipitation. The tubes were sealed with parafilm and allowed to stand at room temperature with frequent vortexing. Supernatant were processed as described above for serum samples. For each analytical run, a calibration curve was constructed using peak response against the concentration in calibration standards prepared in same biomatrix.
The amount, cumulative amount and % of the administered dose excreted via urine, bile and feces were calculated.

[2] = log P from potentiometric titration; assay type: physicochemical; conditions: aqueous solution titrated with 0.1 M NaOH
Description: where Coctanol and Cbuffer are the concentrations of the compound in octanol and buffer, respectively. Further, log P values {[…]} were also calculated after conducting potentiometric titration. It was carried out manually using a pH electrode and a variable volume pipette. A solution of the compound (1 mg/ml) was prepared in water and it was titrated with a 0.1 M NaOH solution, pH was measured simultaneously. The equivalence point (pKa- partition coefficient) was estimated from the inflection point in the titration curve from the plot between pH and volume of mL of NaOH solution.

[3] = cited from earlier work
free acidity = conditions: compared with Omeprazole; cited from earlier work
[4] = IV 20 mg/kg, bile duct cannulated rats
[5] = IV 20 mg/kg, non-cannulated rats
[6] = IV 20 mg/kg, non-cannulated rats, up to 24 h, 20 mg/kg
[7] = oral 20 mg/kg, bile duct cannulated rats
[8] = oral 20 mg/kg, bile duct cannulated rats, up to 24 h, 20 mg/kg
[9] = oral 20 mg/kg, non-cannulated rats
[10] = oral 20 mg/kg, non-cannulated rats, up to 24 h, 20 mg/kg

## O=C1NC(C(=O)O)/C(=C\Cc2ccccc2)O1 (stereo not drawn) [CDRI-85/92, (5E)-2-oxo-5-(2-phenylethylidene)-1,3-oxazolidine-4-carboxylic acid]
[1]; [4]
  % of dose recovered, urine 0–12 h: 16.8%
  fe (fraction excreted), urine: 0.90
[1]; IV 20 mg/kg, bile duct cannulated rats, up to 24 h, 20 mg/kg
  % of dose recovered, urine total: 16.8 ± 2.7% and 16.8%
[1]; [5]
  % of dose recovered, feces 0–12 h: 0.05%
  % of dose recovered, feces 12–24 h: 0.02%
  % of dose recovered, urine 0–12 h: 15.7%
  fe (fraction excreted), feces: 0.0008
  fe (fraction excreted), urine: 0.9
[1]; [6]
  % of dose recovered, feces total: 0.08 ± 0.08% and 0.08%
  % of dose recovered, urine total: 15.7 ± 3.3% and 15.7%
[1]; bile, po, 20 mg/kg, oral 20 mg/kg, bile duct cannulated rats, read-out: Ke (excretion rate constant), bile (converted)
  k el: 2.78e-05 s⁻¹
[1]; bile, po, 20 mg/kg, oral 20 mg/kg, bile duct cannulated rats, read-out: Kel (elimination rate constant), bile (converted)
  k el: 1.33e-05 s⁻¹
[1]; feces, iv, 20 mg/kg, IV 20 mg/kg, non-cannulated rats, read-out: Ke (excretion rate constant), feces (converted)
  k el: 4.17e-05 s⁻¹
[1]; feces, iv, 20 mg/kg, IV 20 mg/kg, non-cannulated rats, read-out: Kel (elimination rate constant), feces (converted)
  k el: 8.33e-06 s⁻¹
[1]; feces, po, 20 mg/kg, oral 20 mg/kg, non-cannulated rats, read-out: Ke (excretion rate constant), feces (converted)
  k el: 1.94e-05 s⁻¹
[1]; feces, po, 20 mg/kg, oral 20 mg/kg, non-cannulated rats, read-out: Kel (elimination rate constant), feces (converted)
  k el: 1.67e-05 s⁻¹
[1]; urine, iv, 20 mg/kg, IV 20 mg/kg, bile duct cannulated rats, read-out: Ke (excretion rate constant), urine (converted)
  k el: 1.11e-05 s⁻¹
[1]; urine, iv, 20 mg/kg, IV 20 mg/kg, bile duct cannulated rats, read-out: Kel (elimination rate constant), urine (converted)
  k el: 1.39e-05 s⁻¹
[1]; urine, iv, 20 mg/kg, IV 20 mg/kg, non-cannulated rats, read-out: Ke (excretion rate constant), urine (converted)
  k el: 2.5e-05 s⁻¹
[1]; urine, iv, 20 mg/kg, IV 20 mg/kg, non-cannulated rats, read-out: Kel (elimination rate constant), urine (converted)
  k el: 2.78e-05 s⁻¹
[1]; urine, po, 20 mg/kg, oral 20 mg/kg, bile duct cannulated rats, read-out: Ke (excretion rate constant), urine (converted)
  k el: 1.67e-05 s⁻¹
[1]; urine, po, 20 mg/kg, oral 20 mg/kg, bile duct cannulated rats, read-out: Kel (elimination rate constant), urine (converted)
  k el: 1.94e-05 s⁻¹
[1]; urine, po, 20 mg/kg, oral 20 mg/kg, non-cannulated rats, read-out: Ke (excretion rate constant), urine (converted)
  k el: 1.11e-05 s⁻¹
[1]; urine, po, 20 mg/kg, oral 20 mg/kg, non-cannulated rats, read-out: Kel (elimination rate constant), urine (converted)
  k el: 1.94e-05 s⁻¹
[1]
  Excreted in urine, % of the dose: 15%
[1]; listed as CDRI 85/92
  Excreted in urine, % of the dose: ~ 15%
[1]; [7]
  % of dose recovered, bile 0–12 h: 0.3%
  % of dose recovered, bile 12–24 h: 0.08%
  % of dose recovered, urine 0–12 h: 1.5%
  % of dose recovered, urine 12–24 h: 0.2%
  fe (fraction excreted), bile: 0.0037
  fe (fraction excreted), urine: 0.83
[1]; [8]
  % of dose recovered, bile total: 0.37 ± 0.12% and 0.37%
  % of dose recovered, urine total: 1.7 ± 0.8% and 1.7%
[1]; [9]
  % of dose recovered, feces 0–12 h: 1.0%
  % of dose recovered, feces 12–24 h: 0.2%
  % of dose recovered, urine 0–12 h: 3.7%
  % of dose recovered, urine 12–24 h: 0.5%
  fe (fraction excreted), feces: 0.012
[1]; [10]
  % of dose recovered, feces total: 1.2 ± 0.6% and 1.2%
  % of dose recovered, urine total: 4.2 ± 1.1% and 4.2%
[1]; rats, 20 mg/kg
  Levels of the compound in bile and feces: insignificant levels
[2]
  logP: 0.55 ± 0.18
[3]
  aqueous solubility: > 500 µg/mL
Free acidity
  % inhibition in the free acidity: fairly compares with that of Omeprazole
